According to patent US5610185A, “Method for the treatment of hyperproliferative epithelial skin diseases by topical application of hydroxylated aromatic protein cross-linking compounds” (The United States of America as represented by the …, priority 1995, dated 1997):

Legend:
[1] = tested on: SQCC-Y1 human squamous carcinoma cells; test: Cornified envelope (cross-linked protein) assay, SQCC-Y1 cells; type: cell-based; details: for cross-linked protein production by MC derivatives: SQCC-Y1 cells, FIG. 11, preliminary; for potency in cross-linking: of 15 aromatic compounds, FIG. 12
308 and SQCC-Y1 cells = test: Cross-linked protein envelopes by tyrosine kinase inhibitors (Table II); type: cell-based; details: concentrations within the range for inhibition of tyrosine kinases
Method: (§1) The assay measures insoluble cross-linked protein envelopes as described (Hough-Monroe et al. Analytical biochem., 199, 25-28, 1991), with modifications as follows. Cornified envelopes were prepared by scraping monolayers into 2% sodium dodecylsulphate (SDS), 20 mM dithiothreitol (DTT) in phosphate buffered saline (PBS). Unattached cells were pelleted from medium and were resuspended in SDS/DTT and pooled with attached cells. Samples were boiled for 10 mins. Cornified envelope samples were examined under the microscope using phase contrast optics or were applied to an RC60 membrane (Schleicher and Schuell, Keene, N.H.) on a 96-well dot-blot apparatus attached to a vacuum. Samples were washed three times with SDS/DTT and the resultant protein spots on RC60 membrane were fixed and stained as described. Sports were excised and eluted with 1% NH3 OH concentrated solution, 66% methanol (200 ul) overnight. Absorbance of eluate was measured on a Titertek plate reader at 600 nm.
A range of tyrosine kinase inhibitors was tested for ability to produce cross-linked protein envelopes in 308 and SQCC-Y1 cells. All inhibitors were obtained commercially from LC Laboratories, Woburn, Mass. Concentrations used were within the range for inhibition of tyrosine kinases.

[2] = tested on: primary mouse keratinocytes; test: Cornified envelope (cross-linked protein) assay, primary mouse keratinocytes; type: cell-based; details: 4° C. and 37° C., 48 hours
Method: FIGS. 3A and 3B. A: Time course for cornification of primary mouse keratinocytes in response to MC. Boxes represent […] Ca^2+, triangles represent 100 μM MC, 1.4 mM Ca^2+, and solid circles represent 1 mM MC, 1.4 mM Ca^2+. […] Cells were incubated in medium with 1.4 mM Ca^2+ and MC for 4 hours, then were incubated with MTT (0.5 mg/ml in medium) for a further 4 hours before determination of formazan production.
Primary mouse keratinocytes were isolated from BALB/c newborn mouse skin. Primary keratinocytes, the benign neoplastic keratinocyte cell lines 308 and SP-1 (Strickland et al, Cancer Res., 48, 165-169, 1988) and the mouse squamous cell carcinoma line 1-7 (Greenhalgh et al., Proc. Natl. Acad. Sci., 87, 643-647, 1990) were grown in Eagle's minimal essential medium with 8% fetal calf serum (FCS) (chelexed) and penicillin 20 iu/ml, streptomycin 20 ug/ml (P/S). Unless otherwise indicated, the Ca^2+ concentration in medium was adjusted to 0.05 mM (Hennings et al., Cells, 19, 245-254, 1980). A431 human epidermoid carcinoma cells were obtained from ATCC, Rockville, Md., and were routinely passaged in DMEM with 10% FCS, P/S, glutamine (2 mM) and pyruvate (1 mM). SQCC-Y1 human squamous carcinoma cells and non-tumorigenic HPV 18 and SV 40 infected human keratinocytes were kindly donated by Dr. James Rheinwald of Harvard University, Boston, Mass. and Dr. Richard Schlegel of Georgetown University, Washington D.C. respectively. Human cells were cultured in DMEM/Ham's F12 1:1, 10% FCS, P/S and epidermal growth factor 10 ng/ml.
Primary mouse keratinocytes were incubated with MC for 0, 0.5, 1, 4 and 48 hours and were processed as follows.
as §1
Cells were seeded at low density and were treated with MC for 3 days. Cells were then counted and increase in cell number was compared to untreated controls, or cells were processed for cross-linked protein.
Inhibitors were added 30 mins before MC or stsp (FIG. 6). Cross-linked protein was measured by the cornified envelope assay, described in Example 2.

transglutaminase = details: Dlugosz and Yuspa, Cancer Res., 51, 4677-4684, 1991; cited from earlier work

| SMILES | cross-linked protein production by MC derivatives [1] | potency in cross-linking [1] | further results |
| --- | --- | --- | --- |
| COC(=O)c1cc2ccc(O)c(O)c2cn1.Cl [67F-36-A, 7,8-Dihydroxyisoquinoline-3-carboxylic acid methyl ester hydrochloride] | inactive |  |  |
| COC(=O)c1ccc2c(O)c(O)ccc2c1 [67G-146-A, 5,6-Dihydroxy-2-naphthoic acid methyl ester] | active | most potent | cross-linked protein production by MC derivatives ([1]; listed as 67G-146A): clearly exhibit protein cross-linking activity |
| O=C(/C=C/c1ccc(O)c(O)c1)OCCc1ccccc1 [67H-42-A, Caffeic acid β-phenylethyl ester] | inactive |  |  |
| O=C(CCc1ccc(O)c(O)c1)OCCc1ccccc1 [67H-69-A, 3-(3,4-Dihydroxyphenyl) propanoic aid β-phenylethyl ester] | active | most potent | cross-linked protein production by MC derivatives ([1]; listed as 67H-69A): clearly exhibit protein cross-linking activity |
| O=C(C=Cc1cc(O)c(O)cc1O)OCCc1ccccc1 [67H-98-A, 2,4,5-Trihydroxycinnamic acid β-phenylethyl ester] | active | most potent | cross-linked protein production by MC derivatives ([1]; listed as 67H-98A): clearly exhibit protein cross-linking activity |
| O=C(C=Cc1cc(O)ccc1O)OCCc1ccccc1 [67H-124-A, 2.5-dihydroxycinnamic acid β-phenylethyl ester] | clearly exhibit protein cross-linking activity | most potent |  |
| COC1C=CC=C(C)C(=O)NC2=CC(=O)C=C(C2=O)C(OC)C(C)CC(OC)C(OC)C(C)C=C(C)C1OC(N)=O (centres unmarked) [herbimycin A] |  |  | ability to induce cross-linking (308 and SQCC-Y1 cells): unable to induce cross-linking |
| O=C(O)c1cc(N(Cc2ccccc2O)Cc2cc(O)ccc2O)ccc1O [lavendustin A] |  |  | ability to induce cross-linking (308 and SQCC-Y1 cells): unable to induce cross-linking |
| CN[C@@H]1C[C@H]2O[C@@](C)([C@@H]1OC)n1c3ccccc3c3c4c(c5c6ccccc6n2c5c31)C(=O)NC4 [staurosporine, reference compound] |  |  | cross-linked protein at 4° C. and 37° C. [2]: temperature dependent; transglutaminase activity (literature) (transglutaminase): increases TGase activity |
